Measured values reported in US7517657B2, “Peptides for detecting anti-double stranded DNA antibody and uses thereof” (Albert Einstein College of Medicine of Yeshiva University, priority 1995, dated 2009).
Entries after “also recorded” stand apart in the source; their conditions may differ. Square brackets hold non-standard residues; d marks the D form. Ends that are not written are not given here.

The substances below were run on R4A anti-dsDNA monoclonal antibody (assay: ELISA binding of monoclonal antibody R4A to phage clones). Settings: R4A selected phage, Table 2.
Design: species or system mouse
Method: (§1) FIG. 1 is comprised of FIGS. 1A, 1B and 1C, and depicts the binding by Enzyme Linked ImmunoSorbent Assay of monoclonal antibodies R4A (FIG. 1A), 95 (FIG. 1B) and 52b3 (FIG. 1C) to phage clones. In each figure, the shaded columns are R4A-selected phage and unshaded columns are 52b3-selected phage.
(§2) Binding of antibodies to phage was determined by Enzyme-Linked ImmunoSorbent Assay (ELISA). Microtiter plates (Becton Dickinson, Lincoln Park, N.J.) were coated with 50 μl of antibody (1 μg/ml unless otherwise specified) in TBS (Tris/10 mM HCl pH 7.5, 150 mM NaCl) overnight at 4° C. Plates were washed 3 times with TBS/0.05% TWEEN® 20. Approximately 2.5×10^10 purified phage in 50 μl TBS were added to each well, incubated for 2 hours at 37° C., washed, and then were blocked with 150 μl of TBS/2% BSA for 1 hour at 37° C. Plates were incubated with 50 μl of a 1:4000 dilution in TBS of biotinylated sheep antibody to M13 phage (5′->3′, Inc., Boulder, Colo.) for 1 hour at 37° C. Plates were washed again and incubated with a 1:4000 dilution of […] streptavidin (Southern Biotech. Assoc. Inc., Birmingham, Ala.) and developed with Sigma-104 substrate tablets (Sigma Chemical Co.). Optical density was read at 405 nm.

Row | Substance | Binding O.D. 405 nm
1 | D W D Y G A L M W A (DWDYGALMWA; displayed on phage; peptide (1)..(10) randomly-selected sequence obtained by biopanning a decapeptide library with R4A) [φ7-3] | 1.1
2 | D W E Y S V W L S N (DWEYSVWLSN; not fully specified (N-terminus, C-terminus)) [φ1-3] | 1.3
3 | F S D C Y H S G C P [φ1-1] | 1.5
4 | L Y F E D Y R C E L (LYFEDYRCEL; displayed on phage; peptide (1)..(10) randomly-selected sequence obtained by biopanning a decapeptide library with R4A) [φ7-6] | 1.2
5 | S T E H S E A D L W (STEHSEADLW; displayed on phage; peptide (1)..(10) randomly-selected sequence obtained by biopanning a decapeptide library with R4A) [φ1-2] | 0.7
6 | V P V C D W E L N C (VPVCDWELNC; displayed on phage; peptide (1)..(10) randomly-selected sequence obtained by biopanning a decapeptide library with R4A) [φ7-26] | 0.4
7 | W C E A D Y G R C P (WCEADYGRCP; displayed on phage; peptide (1)..(10) randomly-selected sequence obtained by biopanning a decapeptide library with R4A) [φ7-21] | 1.3
8 | Y S D W D Y S E G L (YSDWDYSEGL; displayed on phage; peptide (1)..(10) randomly-selected sequence obtained by biopanning a decapeptide library with R4A) [φ1-10] | 1.1

Each substance was assayed on 52b3 anti-dsDNA monoclonal antibody (assay: ELISA binding of monoclonal antibody 52b3 to phage clones). Settings: 52b3 selected phage, Table 3.
Design: species or system mouse
Method: as §1, §2

Row | Substance | Binding O.D. 405 nm
9 | C G V D G R W P R W (CGVDGRWPRW; displayed on phage; peptide (1)..(10) randomly-selected sequence obtained by biopanning a decapeptide library with 52b3) [φB23] | 1.5
10 | D G E W P R E G W S (DGEWPREGWS; displayed on phage; peptide (1)..(10) randomly-selected sequence obtained by biopanning a decapeptide library with 52b3) [φB56] | 1.6
11 | E D L E G E W P M R (EDLEGEWPMR; displayed on phage; peptide (1)..(10) randomly-selected sequence obtained by biopanning a decapeptide library with 52b3) [φB22] | 1.5
12 | L L D D G F W P R V (LLDDGFWPRV; displayed on phage; peptide (1)..(10) randomly-selected sequence obtained by biopanning a decapeptide library with 52b3) [φB25] | 1.5
13 | R H E D G D W P R V (RHEDGDWPRV; not fully specified (N-terminus, C-terminus)) [φB11] | 1.4
14 | S C Y Q S Y P G E C (SCYQSYPGEC; displayed on phage; peptide (1)..(10) randomly-selected sequence obtained by biopanning a decapeptide library with 52b3) [φB52] | 1.8
15 | S L D E L D W D S M (SLDELDWDSM; displayed on phage; peptide (1)..(10) randomly-selected sequence obtained by biopanning a decapeptide library with 52b3) [φB1] | 1.4
16 | S L I S D E W P R W (SLISDEWPRW; displayed on phage; peptide (1)..(10) randomly-selected sequence obtained by biopanning a decapeptide library with 52b3) [φB24] | 1.3
17 | T W C P V W I W D C (TWCPVWIWDC; displayed on phage; peptide (1)..(10) randomly-selected sequence obtained by biopanning a decapeptide library with 52b3) [φB16] | 1.0
18 | V L I C W D G C E T (VLICWDGCET; displayed on phage; peptide (1)..(10) randomly-selected sequence obtained by biopanning a decapeptide library with 52b3) [φB17] | 1.6
19 | W D C Y V C R L E L (WDCYVCRLEL; displayed on phage; peptide (1)..(10) randomly-selected sequence obtained by biopanning a decapeptide library with 52b3) [φB21] | 1.2

The substances below were run on R4A binding to dsDNA (assay: Peptide inhibition of R4A binding to dsDNA by ELISA). Settings: fluid phase inhibitor, FIG. 3, FIG. 4.
Design: species or system mouse
Method: FIG. 3 depicts peptide inhibition of R4A (1 μg/ml) binding to calf thymus double stranded DNA by Enzyme Linked ImmunoSorbent Assay.
FIG. 4 sets forth a graph representing DWEYS (L and D peptides) (SEQ ID NO:2) inhibition of R4A binding to dsDNA. IMMULON® II plates were coated overnight with 100 μg/ml salmon sperm dsDNA. R4A at a final concentration of 5 μg/ml was incubated at varying concentrations of L or D DWEYS (SEQ ID NO:2) and transferred to the plate precoated with dsDNA. After a 2-hr incubation at 37° C., the plates were washed, and alkaline phosphotase-linked goat anti-mouse IgG2b antibody was added for 1 hour at 37° C. OD after addition of substrate was monitored at 405 nm.

Row | Substance | Inhibition of R4A binding to dsDNA
20 | DWEYS [D peptide DWEYS] (Ac-[dD][dW][dE][dY][dS]-NH2; SMILES CC(=O)N[C@H](CC(=O)O)C(=O)N[C@H](Cc1c[nH]c2ccccc12)C(=O)N[C@H](CCC(=O)O)C(=O)N[C@H](Cc1ccc(O)cc1)C(=O)N[C@H](CO)C(N)=O) [R4A-specific peptide DWEYS made from D amino acids] | inhibited the binding of R4A to dsDNA
21 | DWEYS [L peptide DWEYS, R4A-specific L peptide DWEYS] | showed greater maximal inhibition; also recorded: inhibited the binding of R4A to dsDNA; also recorded: inhibited dsDNA better than the D peptide in vitro
22 | DWEYSVWLSN [R4A specific peptide] | inhibited dsDNA binding by the appropriate antibody only

Each substance was assayed on 52b3 binding to dsDNA (assay: Peptide inhibition of 52b3 binding to dsDNA by ELISA). Settings: fluid phase peptide, FIG. 3.
Design: species or system mouse
Method: To determine whether peptide and dsDNA bound within the same antigen binding site of each antibody, inhibition assays were performed with specific peptides. […] These were used in fluid phase to inhibit the binding of antibody to dsDNA. Two peptides, Asp-Trp-Glu-Tyr-Ser-Val-Trp-Leu-Ser-Asn (SEQ ID NO:1) and Asp-Trp-Glu-Tyr-Ser (SEQ ID NO:2), were chosen as the R4A specific epitope; the 52b3 specific peptide was Arg-His-Glu-Asp-Gly-Asp-Trp-Pro-Arg-Val (SEQ ID NO:7).

Row | Substance | Inhibition of 52b3 binding to dsDNA
23 | RHEDGDWPRV [52b3 specific peptide] | inhibited dsDNA binding by the appropriate antibody only

Each substance was assayed on R4A deposition in glomeruli (assay: Assay of anti-dsDNA antibody (R4A) glomerular deposition in SCID mice). Settings: 75 μg R4A and 150 μg peptide i.p., IgG immunostaining, FIG. 5.
Type: in vivo
Method: FIG. 5 sets forth kidney sections exemplifying peptide inhibition of R4A deposition in glomeruli. R4A (75 μg) and peptide (150 μg) were injected i.p. into SCID mice. Mice were killed 16 hours later, and the kidneys immunostained for IgG deposition. […] FIG. 5B sets forth a representative section from a mouse injected with R4A, and the R4A- specific D peptide DWEYS (SEQ ID NO:2).
Glomerular deposition of the nephritogenic R4A antibody was examined by injecting purified antibody into SCID mice. R4A was obtained from cell culture supernatants or from ascites of mice injected with the cell line. Antibody was purified on a protein G column (Gamma Bind, Pharmacia). SCID mice were obtained from the breeding colony maintained at the Albert Einstein College of Medicine. Six- to eight-week old female mice were used in the experiments. Anti-dsDNA antibodies and IgG2b levels were undetectable in these mice before injection. Individual mice were simultaneously injected i.p. with 75 μg of purified R4A and 150 μg of the appropriate peptide. The mice were killed 16 hours after the injection of antibody.
One kidney from each animal was fixed in 10% formalin and embedded in paraffin. […]

Row | Substance | Inhibition of R4A deposition in glomeruli / kidney
24 | DWEYS [D peptide DWEYS] (Ac-[dD][dW][dE][dY][dS]-NH2; SMILES CC(=O)N[C@H](CC(=O)O)C(=O)N[C@H](Cc1c[nH]c2ccccc12)C(=O)N[C@H](CCC(=O)O)C(=O)N[C@H](Cc1ccc(O)cc1)C(=O)N[C@H](CO)C(N)=O) [R4A-specific peptide DWEYS made from D amino acids] | markedly inhibited the deposition of R4A in the kidney; also recorded: only the D peptide conferred renal protection in vivo
25 | DWEYS [L peptide DWEYS, R4A-specific L peptide DWEYS] | More anti-dsDNA antibody is present in glomeruli; also recorded: did not

The substances below were run against phage clone φ3-3, no insert (UniProt P03661) (assay: phage ELISA, antibody coated, no-insert control phage added, anti-M13 detection). Settings: not given.
Chain of UniProt P03661 (P03661 19-424 limits assumed): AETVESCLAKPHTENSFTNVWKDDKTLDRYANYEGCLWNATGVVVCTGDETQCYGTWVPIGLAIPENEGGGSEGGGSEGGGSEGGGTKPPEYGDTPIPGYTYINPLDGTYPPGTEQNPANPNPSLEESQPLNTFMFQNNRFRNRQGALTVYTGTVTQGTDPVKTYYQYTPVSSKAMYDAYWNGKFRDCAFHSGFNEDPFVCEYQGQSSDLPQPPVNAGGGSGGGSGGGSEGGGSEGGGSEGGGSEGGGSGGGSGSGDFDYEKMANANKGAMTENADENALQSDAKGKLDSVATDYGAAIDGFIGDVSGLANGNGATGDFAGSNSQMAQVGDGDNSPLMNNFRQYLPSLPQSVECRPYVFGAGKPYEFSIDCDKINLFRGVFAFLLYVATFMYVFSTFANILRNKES

Row | Substance | Binding O.D. 405 nm [O.D. 405 nm]
26 | monoclonal antibody R4A (mouse anti-dsDNA antibody) | 0.1
